Assay results: paper PMC6264418, “t-Bu2SiF-Derivatized D2-Receptor Ligands: The First SiFA-Containing Small Molecule Radiotracers for Target-Specific PET-Imaging” (Molecules, 2011)
Where two headings read alike, the source gives them in different places.

Assays:
human D2 receptor [1] = target: T1, human D2 receptor (Homo sapiens, UniProt P14416); assay: [3H]spiperone binding assay, dopamine D2-receptor affinity (HEK293 cells stably expressing D2 receptors)
T1 construct: expressed in transfected cells
T1 sequence (P14416 whole entry): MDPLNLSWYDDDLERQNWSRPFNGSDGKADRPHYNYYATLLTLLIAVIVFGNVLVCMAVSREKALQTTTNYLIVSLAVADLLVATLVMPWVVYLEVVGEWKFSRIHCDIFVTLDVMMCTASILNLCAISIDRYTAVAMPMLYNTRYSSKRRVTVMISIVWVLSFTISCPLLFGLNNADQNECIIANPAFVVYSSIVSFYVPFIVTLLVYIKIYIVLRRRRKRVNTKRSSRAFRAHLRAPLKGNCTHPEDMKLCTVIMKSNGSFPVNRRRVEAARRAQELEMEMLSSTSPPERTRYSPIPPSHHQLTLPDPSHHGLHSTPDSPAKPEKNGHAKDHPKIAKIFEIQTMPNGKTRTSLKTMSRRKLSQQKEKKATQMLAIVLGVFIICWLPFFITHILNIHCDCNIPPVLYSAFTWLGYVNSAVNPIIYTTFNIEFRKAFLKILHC
Protocol: Source of the dopamine-D2-receptors was cell line HEK293 which expresses the D2 receptors stably. […] All substances were evaluated in 3 independent competition experiments in six concentrations (each in triplicate). The Ki-values were calculated from the IC50-values according to Cheng-Prusoff as described in detail in [23].

human D2 receptor [2] = target: T1, human D2 receptor; parameters: method as in PMID 12570798; conditions: D2-receptor antagonists, literature affinity; cited from earlier work
[3] = ratio of Ki values at the D2 receptor

Row | SMILES | Ki (human D2 receptor [1]) [nM] | factor by which affinity is reduced compared to fallypride (1) (human D2 receptor [1]; [3]) | D2-receptor affinity range (human D2 receptor [2]) | factor by which affinity is reduced compared to raclopride (human D2 receptor [1]; [3]) | also measured
1 | C=CCN1CCC[C@H]1CNC(=O)c1cc([Si](F)(C(C)(C)C)C(C)(C)C)cc(OC)c1OC [SiFA-FP, 4b, (S)-N-((1-Allylpyrrolidine-2-yl)methyl)-5-(di-tert-butylfluorosilyl)-2,3-dimethoxybenzamide] | 33 ± 7.6 | 342 | – | – | –
2 | C=CCN1CCC[C@H]1CNC(=O)c1ccc([Si](F)(C(C)(C)C)C(C)(C)C)cc1 [SiFA-DDMFP, 4c, (S)-N-((1-Allylpyrrolidine-2-yl)methyl)-4-(di-tert-butylfluorosilyl) benzamide] | 62.7 ± 16.9 | – | – | – | –
3 | C=CCN1CCC[C@H]1CNC(=O)c1cc(CCCF)cc(OC)c1OC [Fallypride, fallypride, reference compound] | – | – | picomolar | – | Ki (human D2 receptor [1]; D2-receptor affinity, [3H]spiperone competition, 3 independent experiments, Ki from IC50 by Cheng-Prusoff, read-out: Ki (nM ± SEM)): 0.0965 ± 0.0153 nM
4 | CCN1CCC[C@H]1CNC(=O)c1c(O)c(Cl)cc(Cl)c1OC [Raclopride, raclopride] | – | – | nanomolar | – | –
5 | C=CCN1CCC[C@H]1CNC(=O)c1cc([Si](F)(C(C)(C)C)C(C)(C)C)ccc1OC [SiFA-DMFP, 4a, (S)-N-((1-Allylpyrrolidine-2-yl)methyl)-5-(di-tert-butylfluorosilyl)-2-methoxybenzamide] | 13.6 ± 4.3 | – | – | 11 | factor by which affinity is reduced compared to desmethoxyfallypride (2) (human D2 receptor [1]; [3]): 22
6 | C=CCN1CCCC1CNC(=O)c1cc(CCCS[C@H]2CC(=O)N(c3ccc([Si](F)(C(C)(C)C)C(C)(C)C)cc3)C2=O)cc(OC)c1OC (stereo partly drawn) [SiFA-M-FP, 5, (S)-N-((1-Allylpyrrolidin-2-yl)methyl)-5-(3-(1-(4-(di-tert-butylfluorosilyl)phenyl)-2,5-dioxopyrrolidin-3-ylthio)propyl)-2,3-dimethoxybenzamide] | 4.21 ± 0.41 | 44 | – | 3.5 | –
